Test results from US12122816B2, “Long acting peptide tyrosine tyrosine (PYY) analogs and methods of use” (Intarcia Therapeutics, Inc., priority 2020, dated 2024).

What was measured:
[1] = Subcutaneous bolus injection pharmacokinetics to assess bioavailability (F); type: in vivo, Sprague-Dawley rats; conditions: male, Sprague-Dawley, plasma; rat, SC bolus 0.1 mg/kg
Description: Peptides were dissolved in sterile saline and administered to non-fasted male Sprague-Dawley rats (n=3 per group) at a dose of 0.1 mg/kg via a single bolus injection into the subcutaneous space between the scapulae. […] Plasma was prepared by centrifugation and stored at −80° C. until analysis.
(§2) A 70 μL aliquot of each plasma sample was placed into to a 96-well plate. To each well was added 210 μL of 0.1% TFA in 2:1 ethanol:acetonitrile containing an appropriate internal standard. Plates were vortex mixed for 10 min at 1300 rpm, and then centrifuged for 10 min at 500×g. Supernatants (210 μL) were placed into a clean 96-well plate and evaporated under a nitrogen stream at 45° C. Residues were reconstituted in 80 μL of 20% acetonitrile (aq) containing 0.1% formic acid.
(§3) All calibration standards were prepared in control rat plasma containing K2EDTA and protease inhibitor cocktail.
(§4) Samples were injected onto a 2.1×50 mm reverse phase C18 analytical column, typically a Waters CORTECS UPLC C18+, 1.6 μm (Waters Corporation, Milford, MA) or similar. […] Typical flow rates were 550 μL/min. The column temperature was held constant at 45° C. Peptides were quantified by monitoring one or more product ions produced from a multiply charged parent ion.

human Y2 receptor = molecular target: T1, human Y2 receptor (Homo sapiens, UniProt P49146); test: NPY receptor functional assay (cAMP, HEK-CNG cells, ACTOne membrane potential dye); type: cell-based; conditions: NPY2R pEC50, HEK-CNG cells; standard PYY(3-36); species (human or rat) not given
T1 sequence (P49146 1-381): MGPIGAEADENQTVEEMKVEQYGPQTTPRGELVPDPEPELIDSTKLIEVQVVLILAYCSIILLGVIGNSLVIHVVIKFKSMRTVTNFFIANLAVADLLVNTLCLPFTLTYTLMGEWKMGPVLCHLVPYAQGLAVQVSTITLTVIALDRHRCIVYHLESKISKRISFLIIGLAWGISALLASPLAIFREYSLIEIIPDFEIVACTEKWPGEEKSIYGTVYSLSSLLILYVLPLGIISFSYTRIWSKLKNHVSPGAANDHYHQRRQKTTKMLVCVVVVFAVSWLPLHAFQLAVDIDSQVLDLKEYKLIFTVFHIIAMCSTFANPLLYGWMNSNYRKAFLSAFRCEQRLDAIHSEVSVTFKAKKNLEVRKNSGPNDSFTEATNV
In short: (§1)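 HEK-CNG cells stably expressing each human receptor; peptides added in triplicate for 50 minutes at room temperature, with agonism read as decreased isoproterenol-induced membrane potential dye signal (final/initial read).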

human Y4 receptor = human Y4 receptor (Homo sapiens, UniProt P50391); test: as above; type: cell-based; conditions: standard PP, species (human or rat) not given
human Y4 receptor, sequence (P50391 whole entry): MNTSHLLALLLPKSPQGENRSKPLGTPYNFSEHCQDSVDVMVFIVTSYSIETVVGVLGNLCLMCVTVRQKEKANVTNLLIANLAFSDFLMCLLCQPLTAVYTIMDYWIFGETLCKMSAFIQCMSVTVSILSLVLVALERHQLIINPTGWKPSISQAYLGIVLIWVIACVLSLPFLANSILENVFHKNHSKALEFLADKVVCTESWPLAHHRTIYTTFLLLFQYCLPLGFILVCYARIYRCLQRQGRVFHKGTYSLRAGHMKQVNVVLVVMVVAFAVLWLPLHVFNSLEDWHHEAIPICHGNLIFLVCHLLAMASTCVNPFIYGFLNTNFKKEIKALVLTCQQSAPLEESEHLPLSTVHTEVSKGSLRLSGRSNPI
In short: as §1

[2] = Intravenous infusion pharmacokinetics to assess clearance (CL); type: in vivo, Sprague-Dawley rats; conditions: male, Sprague-Dawley, plasma, rat, 1-hour IV infusion, 0.033 mg/kg
Description: Peptides were dissolved in 0.05% Tween-20 in PBS (pH7.4) and administered as a 1-hour subcutaneous infusion to non-fasted male Sprague-Dawley rats (n=3 per group) at a final dose of 0.033 mg/kg via a cannula placed into the femoral vein. Formulations were administered at a rate of 0.150 mL/h/kg. […] Plasma was prepared by centrifugation and stored at −80° C. until analysis.
as §2, §3, §4

SMILES: CC(C)C[C@H](NC(=O)[C@H](Cc1ccc(O)cc1)NC(=O)[C@H](Cc1c[nH]cn1)NC(=O)[C@H](CCCNC(=N)N)NC(=O)[C@H](C)NC(=O)[C@H](CC(=O)O)NC(=O)[C@H](C)NC(=O)[C@H](Cc1ccc(O)cc1)NC(=O)[C@H](Cc1ccc(O)cc1)NC(=O)[C@H](CCCNC(=N)N)NC(=O)[C@H](CC(N)=O)NC(=O)[C@H](Cc1c[nH]c2ccccc12)NC(=O)[C@H](CCC(=O)O)NC(=O)[C@H](CCC(=O)O)NC(=O)[C@@H]1CCCN1C(=O)[C@H](CO)NC(=O)[C@H](C)NC(=O)[C@H](CC(=O)O)NC(=O)[C@H](CCCCN)NC(=O)[C@H](CCCCNC(=O)CC[C@H](NC(=O)CC[C@H](NC(=O)CCCCCCCCCCCCCCCCCCC(=O)O)C(=O)O)C(=O)O)NC(=O)[C@@H]1CCCN1C(=O)[C@H](C)NC(=O)[C@H](CCC(=O)O)NC(=O)[C@@H]1CCCN1C(=O)[C@H](CCCCN)NC(=O)[C@@H]1CCCN1)C(=O)N[C@@H](CC(N)=O)C(=O)N[C@@H](Cc1c[nH]c2ccccc12)C(=O)N[C@@H](CC(C)C)C(=O)N[C@H](C(=O)N[C@@H](CCCNC(=N)N)C(=O)N[C@@H](CCC(N)=O)C(=O)N[C@@H](CCCNC(=N)N)C(=O)N(C)[C@@H](Cc1ccc(O)cc1)C(N)=O)[C@@H](C)O [Compound A7]
- bioavailability [1]: 66.7%
- EC50 (human Y2 receptor): 0.2 nM
- NPY4R pEC50 (human Y4 receptor): inactive
- clearance [2]: 0.326 mL/min/kg
- half-life ([2]; read-out: IV t1/2 (converted)): 6.44 h
